Assay results taken from patent US20060035846A1, “Preventing/correcting functional disorders of the pilosebaceous unit of mammals” (L'OREAL, priority 2002, published 2006).

Tested on: costo-vertebral organ (CVO) of the hamster
Experiment: CVO test: inhibition of the "testosterone effect" by food supplements
Assay type: in vivo
Conditions: daily topical application of testosterone to the right CVO from day 50; control animals without food supplement; FIG. 1
Source text: 1-A: Principle of the CVO Test:
The CVO of the hamster is a cutaneous region rich in pilosebaceous units.
The CVO test consists of determining the anti-androgenic action of different compounds on the CVO, i.e., of determining whether said compounds prevent the action of testosterone (Liao S et al., Arch Dermatol Res, 293(4), 200-206 (2001)).
Consequently, this figure illustrates the “testosterone effect”.
As from the fiftieth day (dotted arrow), testosterone was applied daily to the right CVO.
The following products were used in the context of the in vivo CVO test such as defined above. These products were tested as food supplements, alone or in combination. • (a) the natural aroma of red wine rich in resveratrol (stilbenes) and proanthocyanidines (flavonoids) in the proportion of 0.11 g in 43 g of food (18% of polyphenols); • (b) a soja extract containing 40% of isoflavonoids, in a proportion of 0.02 g of extract in 44 g of food (40% of isoflavones); • (c) black currant pip oil rich in γ-linolenic acid (polyunsaturated fatty acid 18:3 n-6) in a proportion of 10% by weight in the foodstuff; • (d) the combination of the above three products.

Structure (SMILES): C[C@]12CC[C@H]3[C@@H](CCC4=CC(=O)CC[C@@]43C)[C@@H]1CC[C@@H]2O [testosterone]
- size of the right CVO compared with that of the left CVO ("testosterone effect"): increase in the size
